Earlier results as cited in patent US7618987B2, “Acylated piperidine derivatives as melanocortin 4-receptor agonists” (Merck & Co., Inc., priority 2004, dated 2009).

How the values were obtained:
[1] = in vivo, po
[2] = system: males with psychogenic erectile dysfunction

**Q.** With “Ac-Nle-c[Asp-His-DPhe-Arg-Trp-Lys]-NH2 [MT-II]” as the substance, how does the “absorption into the systemic circulation” value [1] read?
**A.** not absorbed into the systemic circulation

**Q.** What about the adverse reactions observed ([2]; in vivo) of the same substance?
**A.** nausea, flushing, loss of appetite, stretching, and yawning

**Q.** What about the duration of action ([2]; in vivo) of the same substance?
**A.** approximately 2.5 hours

**Q.** And the “time to onset of erection” value ([2]; in vivo)?
**A.** 10 to 20 min

**Q.** And the response rate ([2]; injected intramuscularly or subcutaneously)?
**A.** 75%
